The values that follow come from USRE39682E1, “Farnesyl derivatives and pharmaceutical compositions containing them” (Ramot at Tel Aviv University Ltd., priority 1993, dated 2007).

For orientation: EC50 means the midpoint of the concentration-response curve. In general, Ki refers to a dissociation constant, usually derived from enzyme kinetics or from competition with a known ligand.

Read-outs that look alike come from different tables or passages of the source.

For assay [1], the system named is Ha-ras-transformed rat1 cells. Nature of the assay: Growth of ras-transformed rat1 cells (cell counting). It counts as cell-based, rat. The note with it: for EC50: Rattus norvegicus, 168 h, day 7 of drug treatment, estimated from dose response curves, read-out: Inhibition of rab-transformed rat1 cell growth EC50. The text has this: The cell lines employed were rat1, -EJ, which are rat1 cells stably expressing Val- 12 activated human Ha-ras gene (Land H. et al., Nature, 304, 596-602, (1983)); V-raf-3T3, which are 3T3 cells stably expressing the V-raf gene (Xu, N., et al., Proc. Natl. Acad. Sci., 90, 6741-6745); RB-22, which are 3T3 cells stably expressing the rat Erb-B2 gene (Peles, et al., EMBO J., 10, 2077-2086 (1991)) CO6O cells (SV40-CHO), which are CHE cells stably expressing the SV-40 T-antigen gene (Lavi, Proc. Natl. Acad. Sci., 78, 6144-6148 (1981)); human endometrial carcinoma cell line HEC1A, which are cells that express activated K-ras (Enomoto T., Cancer Res., 50, 6139-6145; mouse B16F10 melanoma cells, rat pheochromocytoma PC12 cells, […] cells CHE and COS cells.
(§1) HEC1A, V-raf-3T3 and SV40-CHE cells were grown in Dulbecco's modified Eagle medium (DMEM) containing 10% fetal calf serum (FCS), 4 mM L-glutamine, 10 μg/ml streptomycin and 10 U/ml penicillin. Rat1 and -EJ cells were grown in the same medium except that it was supplemented with 12.5 U/ml nyostatin. RB-22 cells were grown in modified DMEM (1 mM sodium pyruvate, 20 mM sodium bicarbonate)/10% FCS containing 4 mM L-glutamine, […] streptomycin, 10 U/ml penicillin. PC-12 cells were grown in DMEM 15% FCS/5% horse serum and the above noted antibiotics.
(§2) HEC1A cells were plated in 24 well plates at a density of 5×10^3 cells per well and fed with 1 ml of medium. The cells were grown at 37° C. in a humidified atmosphere of 95%/5% air/CO2. All other cell types employed were plated in 24 well plates at a density of 2×10^3 cells per well and fed with the appropriate medium.
Cultures were treated with farnesyl derivatives or with solvent either 3 hrs following plating or one day after plating as indicated. […] Control cultures received 0.1% DMSO only. Cultures were fed on days 6, 7 and 9 of the experiment with the drugs or with solvent-containing media.
Cells were counted following 3, 7 and 10 days of beginning of treatments with drugs. For counting, cells were detached from plates with trypsin/EDTA, and collected by a low speed spin in the presence of DMEM/10% FCS. The pelleted cells were resuspended in a small volume of DMEM/10% FCS and counted under the microscope. Viability of cells was estimated by staining with (3-(4,5-dimethylthiosol-2-yl)-2,5-diphenyltetrazolium bromide (MTT) and microscopic examination of the stained and unstained cells, or spectrophotometric estimation (OD490, 590) of the total stain in each well. Non viable cells were estimated by the trypan blue exclusion method.
Cells were plated at a density 2×10^3/well and received either solvent or drugs one day later. Following 3, 7, or 10 days of the drugs-treatment as described above, cells were collected and the number of cells in each well was estimated by direct counting. […] The effect was apparent after a delay of at least three days. About 40-60% inhibition of cell growth was induced either by FTA or by FTS observed on days 7 and 10 of the treatment.

For assay [2], the system named is untransformed rat1 cells. Nature of the assay: Growth of untransformed rat1 cells (cell counting). It counts as cell-based, rat. The note with it: for effect on the growth of normal rat1 cells: 0.1-50 μM, 3, 7 or 10 days, FIG. 7. The method, then:
as §1, §2
Cultures were treated with farnesyl derivatives or with solvent either 3 hrs following plating or one day after plating as indicated. The drugs were prepared in DMSO to yield the final desired drug (0.1-50 μM) concentration and 0.1% DMSO. Control cultures received 0.1% DMSO only. Cultures were fed on days 6, 7 and 9 of the experiment with the drugs or with solvent-containing media.
[…] For counting, cells were detached from plates with trypsin/EDTA, and collected by a low speed spin in the presence of DMEM/10% FCS. The pelleted cells were resuspended in a small volume of DMEM/10% FCS and counted under the microscope. Viability of cells was estimated by staining with (3-(4,5-dimethylthiosol-2-yl)-2,5-diphenyltetrazolium bromide (MTT) and microscopic examination of the stained and unstained cells, or spectrophotometric estimation (OD490, 590) of the total stain in each well. Non viable cells were estimated by the trypan blue exclusion method.
Cells were plated at a density 2×10^3/well and received either solvent or drugs one day later. Following 3, 7, or 10 days of the drugs-treatment as described above, cells were collected and the number of cells in each well was estimated by direct counting. […]

The target in assay [3] is T1, prenylated protein methyltransferase (PPMTase) (Rattus norvegicus, UniProt Q9WVM4).
T1 construct: from tissue; host or cells: rat cerebellum, synaptosomal membranes
Nature of the assay: Methylation of AFC by PPMTase in rat cerebellar synaptosomal membranes. It counts as biochemical. To be noted: for IC50: synaptosomal membranes, FIG. 2, read-out: IC50 (concentration resulting in 50% inhibition of AFC methylation). The text has this:
As a substrate for methylation served AFC and as the donor of methyl served [methyl-H^3] labelled AdoMet. As a source of the enzyme prenylated protein methyltransferase (PPTMase) served rat cerebellar membranes which are known to be membranes enriched with this enzyme (Ben-Baruch, Biochem. Biophys. Res. Commun., 195, 282-288. (1993)).
Charles River adult male rats were used for preparation of cerebellar synaptosomal membranes. Cerebella were removed after decapitation and homogenized in 0.32M sucrose containing 50 mM Tris-HCl pH 7.4, 3 mM EDTA, 1 mM EGTA, 5 unit/ml aprotinin and 5 μg/ml pepstatin (buffer A) to yield 10% (w/v) homogenates. Nuclear fractions were obtained by 10 min. 600×g centrifugation and synaptosomal fractions were obtained by 20 mins. 14,500×g centrifugation. Membranes of the various cell types used were prepared in the above buffer A by a 60 min. spin at 100,000×g.
Pellets were resuspended in the homogenization buffer and stored at −70° C. Methylation assays were performed at 37° C. in 50 mM Tris-HCl buffer pH 7.4, using 75-125 μg protein, 25 μM [methyl-^3H]AdoMet ([…] in DMSO) in a total volume of 50 μl. DMSO concentration in all assays was 4%.
Reactions were terminated after 10 min. by adding 500 μl chloroform methanol (1:1) and a subsequent addition of 250 μl H2O, mixing them and subsequently by phase separation. A portion of 125 μl of the chloroform phase was dried down at 40° C. and 200 μl of 1M NaOH/1% SDS solution were added thereto. The [^3H]methanol thus formed was counted by the vapor phase equilibrium method as described previously (Hakiai et al., Cell Mol. Neurobiol., 11, 415-431, (1991); Lenner et al., Cell Mol. Neurbiol., 12, 333 and 3351, (1992); Ben-Baruch et al., Biochem. Biophy. Res. Commun., 195, 282-288, (1993)). Typical background counts (i.e. counts of methylation with no AFC added) were 50-100 cpm while typical methylation counts with AFC as a substrate yielded 500 to 6000 cpm. Assays were performed in triplicate and background counts subtracted. Methylation of endogenous substrates, in intact cells, and [α-^32P] GTP-blot overlay assays and gel electrophoreses were performed as detailed previously (Hakiai et al., supra (1991); Lenner et al., supra (1993)).

Where [4] appears, read: Table II, given as range, read-out: Ki.
Where [5] appears, read: from FIG. 2 curves, 100 μM AFC, read-out: inhibition constant (Ki).

T1 sequence (Q9WVM4 whole entry): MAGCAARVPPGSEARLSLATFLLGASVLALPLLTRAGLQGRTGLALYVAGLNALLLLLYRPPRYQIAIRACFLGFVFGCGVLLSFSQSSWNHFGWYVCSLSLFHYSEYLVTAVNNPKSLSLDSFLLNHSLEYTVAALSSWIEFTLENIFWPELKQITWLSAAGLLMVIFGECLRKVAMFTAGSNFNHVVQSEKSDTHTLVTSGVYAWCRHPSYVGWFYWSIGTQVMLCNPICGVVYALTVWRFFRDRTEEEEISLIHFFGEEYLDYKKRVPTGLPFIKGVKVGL

For `CC(C)=CCC/C(C)=C/CC/C(C)=C/CSCC(=O)O` [FTA, S-trans, trans-farnesylthioacetic acid, reference compound], the EC50 in assay [1] is 25 to 50 µM. The “drug concentration of maximum inhibition of cell growth” value in assay [1] (days 7 and 10 of treatment) was determined as 50 µM. In addition, the “effect on the growth of normal rat1 cells” value in assay [2] is on record as “neither FTA nor FTS has any significant effect”. The “[3H-methyl]ester formed” value in assay [3] (100 μM AFC + 200 μM inhibitor) is given as 320 ± 50 cpm/assay. Also, in assay [3] (100 μM AFC), the IC50 worked out at 23 µM. For the same compound, the inhibition constant Ki in assay [3] (setting [4]) is 5.7 to 10.5 µM; in assay [3] (setting [5]), 4 µM.

`CC(C)=CCC/C(C)=C/CC/C(C)=C/CSc1ccccc1C(=O)O` [FTS, (3,7,11-trimethyl-dodeca-2,6,10-trienyl)-2-thiobenzoic acid]: in assay [1], the “active at concentrations times lower than those of FTA” value stood at 10 times. The “Number of cells (% of control)” value was 52 ± 4 % of control in assay [1] (Hs-cis-transformed rat1, 25 μM, day 5) and 97 ± 10 % of control in assay [2] (Ras1, 25 μM, day 5). Moreover, the EC50 in assay [1] is 5 to 10 µM. Moreover, the “inhibition of ras-transformed rat1 cell-growth” value in assay [1] (drugs on the very same day of plating) was “observed already after 3 days in culture”. Besides, the “effect on the growth of normal rat1 cells” value in assay [2] is reported as “neither FTA nor FTS has any significant effect”. Moreover, the “serves as substrate for PPMTase methylation” value in assay [3] was “does not serve as a substrate”. Moreover, the “[3H-methyl]ester formed” value in assay [3] (100 μM AFC + 200 μM inhibitor) was found to be 280 ± 30 cpm/assay; in assay [3] (200 μM of the substance alone as substrate) it was 30 ± 10 cpm/assay. In assay [3] (100 μM AFC), the IC50 was found to be 10 µM. The figures for the Ki in assay [3] (setting [4]) and in assay [3] (setting [5]) were 1.5 to 4.2 µM and 1.5 µM, respectively.
